Measured values reported in patent US20110009332A1, “Therapeutic Treatment Of Wounds” (SOUTHWEST RESEARCH INSTITUTE, priority 2009, published 2011).
Entries after “also recorded” stand apart in the source; their conditions may differ. Where a SMILES comes first, the peptide text is derived from it. The star is where a group is joined. Cbz = O=C(OCc1ccccc1)*; OtBu = CC(C)(C)O*

What was measured:
EFT400-Epidermis = assay: Skin thickness upon addition of PS-1 (EPIDERMFT EFT-400 tissue samples, in vitro); format: cell-based; conditions: for EFT400-Epidermis thickness, Trial 1: control 61; for EFT400-Epidermis thickness, Trial 3: control 66.22; for EFT400-Epidermis thickness, Trial 2: control 73.73
Method: Tissue samples were received and equilibrated for treatment. Media was retained for enzyme-linked immunosorbent assay (ELISA) using an EPIDERMFT kit, product number EFT-400. On the second day, PS-1 treatment was added to the samples, wherein the media was exchanged with compound in 4 ml. More specifically, three samples were maintained as control samples and included DMSO at a concentration of 62 μm/10 ml, with no added PS-1 treatment, 0.1 μM (0.620/10 ml) was added to three samples, 1 μM (0.620/10 ml) was added to three samples, and 10 μM (0.620/10 ml) was added to three samples.
The samples were left to incubate on days 3-5 and on day 6, the media was exchanged again. On the seventh day, tissue samples were removed and conditioned media was saved for ELISA. The samples were then measured using […].
FIG. 2 illustrates changes in the epidermis thickness versus the amount of PS-1 added to the assays and the supporting data is presented in Table 1 below. […] FIGS. 3 through 5 illustrate the difference in thickness as between the control samples and the 10 μl/ml samples at 10× magnification and 40× magnification.

BMP-1 = BMP-1 gene expression (qPCR, normalized over 18S) in human dermal fibroblasts; format: cell-based
Method: An examination of gene expression of BMP-1 was conducted using a number of proteasome inhibitors including, proteasome inhibitor-1, curcumin, MG-132 and bortezomib. Human neonatal dermal fibroblasts (AllCells, Catalog No. HN006001) were maintained in Dulbecco's modified Eagle's medium (DMEM) supplemented with 10% fetal bovine serum. Early passage cells were plated at 2×10^4 cells/cm^2 and grown in humidified 5% CO2 at 37° C. for 24 hours. Spent media was replaced the following day with assay media including Proteasome inhibitor-1 was added in DMEM at 1 μM and 0.1 μM. Untreated cells were used as the control group. For the human osteogenesis PCR array, the experimental group was treated only at 1 μM. In addition, in separate trials, spent media was replace by assay media of curcumin added in DMEM at 10 μM and 100 μM, MG-132 in DMEM at 0.1 μM and 1 μM, and bortezomib in DMEM at 0.1 μm and 1 μM.
Phenol-chloroform extraction was performed to isolate the total RNA for real time polymerase chain reaction array. More specifically, the total RNA was prepared using TRI REAGENT (Ambion, product number 9738), wherein the total RNA was obtained from the human neonatal dermal fibroblasts. Note that isolation was performed as per the instructions provided with the TRI REAGENT. The RNA was used for subsequent quantitative polymerase chain reaction (qPRC) gene expression of BMP1 measured using hydrolysis probes (TAQMAN probes available from Applied Biosystems) as described further below.
Concentration and integrity of the obtained total RNA was assessed by absorbance in a spectrophotometer at 260 nm and 280 nm and by electrophoresis in 1% agarose with formaldehyde loading dye. For TAQMAN gene expression assays, cDNA was synthesized from 2 μg of total RNA using the High Capacity cDNA Reverse Transcription Kit (Applied Biosystems, product number 4368814), again following the protocol supplied with the kit. The resulting cDNA was diluted 1:10.
For TAQMAN gene expression, gene-specific fluorescent labeled TAQMAN primers for FAM-BMP1 (Applied Biosystems, product Hs0098677.g1) and TAQMAN reference VIC-18S ribosomal RNA (Applied Biosystems, product number 4310893E) were used to target the gene of interest. A cocktail of universal master mix (Applied Biosystems, product number 4369016) was prepared individually for both set of primers which contained Taq Polymerase, dNTPs, and buffer. Template cDNA's were added separately to respective individual wells in triplicate samples. PCR was performed on StepOne Plus Real Time System instrument (Applied Biosystems). The amplification program consisted of 1 cycle of 95° C. with 10 minute hold (hot start) followed by 50 cycles of 95° C. with 15 second annealing hold and 1 minute 60° C. specified acquisition hold.
For human osteogenisis PCR array, total RNA was prepared using silica matrix purification using RNEASY MINI KIT (Qiagen, product number 74101) according to the manufacturer's recommendations. cDNA was synthesized from 1 μg of purified DNA-free RNA accordingly to RT^2First Strand Kit (SABiosciences, C-03). The resulting cDNA was diluted 1:30 and amplified. The procedure for the PCR array using real-time PCR is based on the RT^2 Profiler PCR array system instructions for Human Osteogenesis (SABiosciences, product number PAHS-026C). A cocktail reaction mix was setup as recommended by the PCR manufacturer (SABiosceiences, product number PA-012). PCR was performed using the same temperature parameters as used with the StepOne Plus Real Time System instrument. The Ct value of endogenous reference gene (i.e. 18s) was used to control for input RNA and then used to normalize target gene (i.e. BMP-1) tested from the same cDNA sample (Δ Ct), and then calibrated to an internal reference sample (ΔΔCt). Change in gene expression was determined by the expression 2̂-(ΔΔCt). […]

20S proteasomes = 20S proteasomes (Homo sapiens, UniProt P28074); assay: Inhibition of 20S proteasome enzyme activity; format: biochemical; conditions: 0 nM to 10,000 nM, FIGS. 7-9
Method: The IC50 may be understood as the amount of a particular substance/molecule needed to inhibit a given biological process in vitro by 50% and may be an indicator of the potency of a compound. The activity of the proteasome may be quantified by measuring the amount of fluorescence produced by cleavage of a fluorogenic substrate, such as LLVY-AMC, which when released by proteasomal cleavage, may emit fluorescent light.
The enzyme activity of 20S proteasomes was measured upon increasing addition of the proteasome inhibitors PS-1, curcumin and genestein in concentrations ranging from 0 nM to 10,000 nM. In particular, FIG. 7 illustrates the inhibition of 20S proteasomes upon the addition of PS-1. […] FIG. 8 illustrates the inhibition of the 20S proteasomes upon the addition of curcumin. […] FIG. 9 illustrates the inhibition of the 20S proteasomes upon the addition of genestein.

[1] = 0.1 μM inhibitor, FIG. 27, nontreated approximately 1.52 (MG132) / 1.50 (bortezomib), may not be statistically significant
[2] = 1 μM inhibitor, FIG. 27, nontreated approximately 1.52 (MG132) / 1.50 (bortezomib), may not be statistically significant

In the case of `CC[C@H](C)[C@H](NC(=O)OCc1ccccc1)C(=O)N[C@@H](CCC(=O)OC(C)(C)C)C(=O)N[C@@H](C)C(=O)N[C@H](C=O)CC(C)C` [PS-1, Z-Ile-Glu(OBu^t)-Ala-Leu-H] (Cbz-IE(OtBu)AL-aldehyde), the “EFT400-Epidermis thickness, Trial 1” value (EFT400-Epidermis; 0.1 μM PS-1) is reported as 69.47 microns, the “EFT400-Epidermis thickness, Trial 3” value (EFT400-Epidermis; 0.1 μM PS-1) is reported as 78.82 microns and the “EFT400-Epidermis thickness, Trial 2” value (EFT400-Epidermis; 0.1 μM PS-1) is reported as 61.85 microns. For the same compound, the “EFT400-Epidermis thickness, Trial 1” value (EFT400-Epidermis; 1 μM PS-1) was 59.13 microns, the “EFT400-Epidermis thickness, Trial 3” value (EFT400-Epidermis; 1 μM PS-1) was 61.6 microns and the “EFT400-Epidermis thickness, Trial 2” value (EFT400-Epidermis; 1 μM PS-1) was 54.09 microns. For the same compound, the “EFT400-Epidermis thickness, Trial 1” value (EFT400-Epidermis; 10 μM PS-1) was 106.31 microns, the “EFT400-Epidermis thickness, Trial 3” value (EFT400-Epidermis; 10 μM PS-1) was 100.16 microns and the “EFT400-Epidermis thickness, Trial 2” value (EFT400-Epidermis; 10 μM PS-1) was 96.2 microns. The “thickness of the resultant epidermis in vitro (in words)” value (EFT400-Epidermis; addition of 10 μm, compared with the other samples) was “relatively significant increase in the thickness”, the “stratum granulosum formation (in words)” value (EFT400-Epidermis; treated samples vs control samples, FIGS. 3-5) was “relatively well formed stratum granulosum; also recorded: relatively better developed stratum granulosum” and the “BMP-1/18S mRNA levels” value (BMP-1; 0.1 μM PS-1, FIG. 25, nontreated approximately 1.26) was 0.436 a.u. For the same compound, the “BMP-1/18S mRNA levels” value (BMP-1; 1.0 μM PS-1, FIG. 25, nontreated approximately 1.26) was 0.480 a.u and the “enzyme activity of 20S proteasomes with increasing inhibitor concentration (in words)” value (20S proteasomes) was “enzyme activity decreased”.
For `COc1cc(/C=C/C(=O)CC(=O)/C=C/c2ccc(O)c(OC)c2)ccc1O` [curcumin], the “BMP-1/18S mRNA levels” value (BMP-1; 10 μM curcumin, FIG. 26, nontreated approximately 1.26) was 1.68 a.u, the “BMP-1/18S mRNA levels” value (BMP-1; 100 μM curcumin, FIG. 26, nontreated approximately 1.26) was 0.882 a.u and the “enzyme activity of 20S proteasomes with increasing inhibitor concentration (in words)” value (20S proteasomes) was “shown to decrease as well”.
In the case of `CC(C)C[C@@H](C=O)NC(=O)[C@H](CC(C)C)NC(=O)[C@H](CC(C)C)NC(=O)OCc1ccccc1` [MG132] (Cbz-Leu-Leu-Leu-aldehyde), the “BMP-1/18S mRNA levels” value (BMP-1; [1]) is reported as 1.10 a.u and the “BMP-1/18S mRNA levels” value (BMP-1; [2]) is reported as 1.09 a.u.
For `CC(C)C[C@H](NC(=O)[C@H](Cc1ccccc1)NC(=O)c1cnccn1)B(O)O` [bortezomib], the “BMP-1/18S mRNA levels” value (BMP-1; [1]) was 1.27 a.u and the “BMP-1/18S mRNA levels” value (BMP-1; [2]) was 1.27 a.u.
